Data from ChEMBL document CHEMBL3611979, “Design, synthesis and biological characterization of selective LIMK inhibitors” (Bioorg Med Chem Lett, 2015).

What was measured:
LIM domain kinase 1 = LIM domain kinase 1 (Homo sapiens, UniProt P53667); assay: Inhibition of LIMK1 (unknown origin) by radiometric assay
LIM domain kinase 2 = LIM domain kinase 2 (Homo sapiens, UniProt P53671); assay: Inhibition of LIMK2 (unknown origin) by radiometric assay
[1] = biological target: Rho-associated protein kinase 2 (Homo sapiens, UniProt O75116); assay: Inhibition of ROCK2 (unknown origin) by radiometric assay
[2] = biological target: cAMP-dependent protein kinase (PKA) (Homo sapiens, UniProt P22694+P17612+P22612); assay: Inhibition of PKA (unknown origin) by radiometric assay; type: protein assay
[3] = biological target: RAC-alpha serine/threonine-protein kinase (Homo sapiens, UniProt P31749); assay: Inhibition of AKT1 (unknown origin) by radiometric assay
[4] = Inhibition of ROCK in rat A7r5 cells assessed as reduction in MLC Thr18/Ser19 phosphorylation by direct-ELISA method; type: cell-based
[5] = Inhibition of LIMK in human HeLa cells assessed as reduction in cofilin Ser3 phosphorylation by sandwich immunoassay; type: cell-based
Oryctolagus cuniculus = assay: Toxicity in ocular normotensive New Zealand White rabbit assessed as induction of conjunctival hyperemia at 200 µg/eye drop dosed as single topical administration measured 1 to 6 hrs post compound instillation; type: organism-based, Conjunctiva; conditions: in vivo, topical_or_ocular

RAC-alpha serine/threonine-protein kinase, sequence (P31749 whole entry): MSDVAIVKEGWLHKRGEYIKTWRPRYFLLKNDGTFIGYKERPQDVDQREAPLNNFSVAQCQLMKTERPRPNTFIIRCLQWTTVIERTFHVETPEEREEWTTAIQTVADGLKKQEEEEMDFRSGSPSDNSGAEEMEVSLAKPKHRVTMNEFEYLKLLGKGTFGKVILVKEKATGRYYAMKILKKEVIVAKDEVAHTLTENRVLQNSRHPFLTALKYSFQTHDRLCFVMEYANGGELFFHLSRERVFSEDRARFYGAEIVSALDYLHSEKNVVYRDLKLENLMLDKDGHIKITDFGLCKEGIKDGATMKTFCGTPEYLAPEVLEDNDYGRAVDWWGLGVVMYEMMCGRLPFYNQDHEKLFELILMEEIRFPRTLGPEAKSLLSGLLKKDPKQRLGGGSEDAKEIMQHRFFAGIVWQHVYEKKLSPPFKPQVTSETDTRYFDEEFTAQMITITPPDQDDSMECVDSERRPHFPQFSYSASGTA
LIM domain kinase 2, sequence (P53671 whole entry, the tested form may be a part): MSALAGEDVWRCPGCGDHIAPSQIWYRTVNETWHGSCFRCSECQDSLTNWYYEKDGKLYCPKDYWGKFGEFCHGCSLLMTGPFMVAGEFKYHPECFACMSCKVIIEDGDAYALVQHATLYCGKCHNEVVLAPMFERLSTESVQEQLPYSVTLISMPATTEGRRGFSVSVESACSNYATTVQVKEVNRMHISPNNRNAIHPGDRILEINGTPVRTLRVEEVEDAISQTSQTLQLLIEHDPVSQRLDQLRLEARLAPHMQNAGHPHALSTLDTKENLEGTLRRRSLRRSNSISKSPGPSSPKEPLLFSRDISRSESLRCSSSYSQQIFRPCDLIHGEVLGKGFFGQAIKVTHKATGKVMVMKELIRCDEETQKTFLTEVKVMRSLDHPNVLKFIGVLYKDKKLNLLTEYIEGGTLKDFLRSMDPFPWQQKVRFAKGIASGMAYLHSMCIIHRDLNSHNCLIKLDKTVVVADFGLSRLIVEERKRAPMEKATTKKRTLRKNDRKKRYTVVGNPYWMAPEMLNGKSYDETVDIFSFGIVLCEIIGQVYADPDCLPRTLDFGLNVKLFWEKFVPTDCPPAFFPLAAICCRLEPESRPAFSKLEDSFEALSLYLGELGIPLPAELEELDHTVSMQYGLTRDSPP
LIM domain kinase 1, sequence (P53667 whole entry, the tested form may be a part): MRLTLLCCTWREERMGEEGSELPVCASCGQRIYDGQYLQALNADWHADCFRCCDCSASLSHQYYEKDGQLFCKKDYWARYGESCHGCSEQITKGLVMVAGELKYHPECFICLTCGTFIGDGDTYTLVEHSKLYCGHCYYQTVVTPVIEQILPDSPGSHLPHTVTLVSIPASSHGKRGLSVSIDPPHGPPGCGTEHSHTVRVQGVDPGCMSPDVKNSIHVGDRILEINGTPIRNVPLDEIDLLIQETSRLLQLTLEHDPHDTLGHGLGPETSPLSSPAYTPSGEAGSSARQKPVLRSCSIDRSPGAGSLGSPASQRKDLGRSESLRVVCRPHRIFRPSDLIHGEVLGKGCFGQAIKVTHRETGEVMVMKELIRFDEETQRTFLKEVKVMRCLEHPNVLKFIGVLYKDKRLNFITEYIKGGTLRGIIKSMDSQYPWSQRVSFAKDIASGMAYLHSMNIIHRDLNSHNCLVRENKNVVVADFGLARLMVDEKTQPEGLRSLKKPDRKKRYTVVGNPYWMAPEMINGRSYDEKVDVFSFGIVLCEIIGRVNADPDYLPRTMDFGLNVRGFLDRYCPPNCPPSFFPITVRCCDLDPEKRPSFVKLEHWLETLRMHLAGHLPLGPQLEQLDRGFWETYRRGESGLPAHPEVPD
Rho-associated protein kinase 2, sequence (O75116 whole entry): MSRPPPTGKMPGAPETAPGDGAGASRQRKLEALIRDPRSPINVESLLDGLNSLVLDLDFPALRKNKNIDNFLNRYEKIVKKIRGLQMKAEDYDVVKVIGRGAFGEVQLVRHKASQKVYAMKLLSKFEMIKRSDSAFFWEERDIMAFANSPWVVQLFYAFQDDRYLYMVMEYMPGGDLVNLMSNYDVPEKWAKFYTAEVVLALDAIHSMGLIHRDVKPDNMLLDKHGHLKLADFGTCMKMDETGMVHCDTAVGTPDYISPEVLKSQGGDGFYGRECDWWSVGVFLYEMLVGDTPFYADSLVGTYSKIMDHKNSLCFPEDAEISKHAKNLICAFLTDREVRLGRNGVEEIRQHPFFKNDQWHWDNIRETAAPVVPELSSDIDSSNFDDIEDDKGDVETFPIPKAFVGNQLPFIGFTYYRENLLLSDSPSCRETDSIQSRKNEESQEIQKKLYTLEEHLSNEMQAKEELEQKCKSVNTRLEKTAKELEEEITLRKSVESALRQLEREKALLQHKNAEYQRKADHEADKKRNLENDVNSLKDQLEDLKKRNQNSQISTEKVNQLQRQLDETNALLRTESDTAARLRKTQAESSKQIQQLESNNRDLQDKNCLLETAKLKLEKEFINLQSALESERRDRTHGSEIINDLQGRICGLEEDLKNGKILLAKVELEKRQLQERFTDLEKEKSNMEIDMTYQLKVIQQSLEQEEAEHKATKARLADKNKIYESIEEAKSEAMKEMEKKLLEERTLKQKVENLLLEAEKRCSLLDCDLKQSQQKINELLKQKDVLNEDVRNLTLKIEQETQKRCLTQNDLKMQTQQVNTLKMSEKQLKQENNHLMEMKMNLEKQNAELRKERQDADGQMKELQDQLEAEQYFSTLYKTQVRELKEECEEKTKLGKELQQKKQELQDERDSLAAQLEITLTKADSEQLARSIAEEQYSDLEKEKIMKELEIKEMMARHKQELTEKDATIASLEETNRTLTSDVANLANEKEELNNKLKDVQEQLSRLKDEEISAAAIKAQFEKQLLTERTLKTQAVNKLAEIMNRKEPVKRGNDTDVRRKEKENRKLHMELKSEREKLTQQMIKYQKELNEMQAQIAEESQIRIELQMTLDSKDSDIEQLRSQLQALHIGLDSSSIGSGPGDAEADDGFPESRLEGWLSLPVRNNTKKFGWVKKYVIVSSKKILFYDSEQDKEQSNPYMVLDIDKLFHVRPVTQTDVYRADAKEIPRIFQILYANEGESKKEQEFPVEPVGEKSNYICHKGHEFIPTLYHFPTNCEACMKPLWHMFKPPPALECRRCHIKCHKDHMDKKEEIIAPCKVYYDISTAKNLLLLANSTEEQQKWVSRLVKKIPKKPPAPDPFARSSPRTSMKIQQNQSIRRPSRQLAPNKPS

IC50 (LIM domain kinase 1)	IC50 (LIM domain kinase 2)	IC50 [1]	IC50 [2]	Compound	IC50 [3]	EC50 [4]	EC50 [5]	Activity (Oryctolagus cuniculus)
16 nM	< 1 nM	< 1 nM	< 1 nM	COC(=O)c1cccc(NC(=O)C2(CN)CCN(c3ncnc4[nH]cc(C)c34)CC2)c1				
27 nM	1.5 nM	8.9 nM	24 nM	COC(=O)c1cccc(NC(=O)C2(CN(C)C)CCN(c3ncnc4[nH]cc(C)c34)CC2)c1				
18 nM	7.4 nM	100 nM	81 nM	COC(=O)c1cccc(NC(=O)C2(N)CCN(c3ncnc4[nH]cc(C)c34)CC2)c1				
37 nM	12 nM	63 nM	150 nM	COC(=O)c1cccc(NC(=O)C2(N(C)C)CCN(c3ncnc4[nH]cc(C)c34)CC2)c1				
38 nM	< 1 nM	7.9 nM	5.4 nM	COC(=O)COc1cccc(NC(=O)C2(CN(C)C)CCN(c3ncnc4[nH]cc(C)c34)CC2)c1				
57 nM	< 1 nM	56 nM	7 nM	COC(=O)Cc1cccc(NC(=O)C2(CN(C)C)CCN(c3ncnc4[nH]cc(C)c34)CC2)c1				
41 nM	7.7 nM	7.2 nM	2.7 nM	COC(=O)c1ccc(NC(=O)C2(CN(C)C)CCN(c3ncnc4[nH]cc(C)c34)CC2)cc1				
50 nM	2.1 nM	41 nM	5.8 nM	CCCOC(=O)c1cccc(NC(=O)C2(CN(C)C)CCN(c3ncnc4[nH]cc(C)c34)CC2)c1				
41 nM	2.2 nM	53 nM	22 nM	Cc1c[nH]c2ncnc(N3CCC(CN(C)C)(C(=O)Nc4cccc(C(=O)OC(C)C)c4)CC3)c12				
50 nM	4.6 nM	137 nM	24 nM	CCC(C)OC(=O)c1cccc(NC(=O)C2(CN(C)C)CCN(c3ncnc4[nH]cc(C)c34)CC2)c1 (stereo not given)				
7.6 nM	< 1 nM	16 nM	2.2 nM	C#CCOC(=O)c1cccc(NC(=O)C2(CN(C)C)CCN(c3ncnc4[nH]cc(C)c34)CC2)c1				
23 nM	13 nM	1.8 nM	1.1 nM	COC(=O)c1cccc(NC(=O)C2(CN(C)C)CCN(c3ncnc4[nH]ccc34)CC2)c1				
282 nM	193 nM	62 nM	5.1 nM	COC(=O)c1cccc(NC(=O)C2(CN(C)C)CCN(c3ncnc4[nH]ncc34)CC2)c1				
65 nM	274 nM	11 nM	3.8 nM	COC(=O)c1cccc(NC(=O)C2(CN(C)C)CCN(c3ccnc4[nH]ncc34)CC2)c1				
1000 nM	1860 nM	> 10000 nM	1130 nM	COC(=O)c1cccc(NC(=O)C2(CN(C)C)CCN(c3ncnc4c3CC(=O)N4)CC2)c1				
31 nM	9.6 nM	67 nM	69 nM	COC(=O)c1cccc(NC(=O)C2(N)CCN(c3ncnc4[nH]ccc34)CC2)c1				
> 1000 nM	> 10000 nM	> 1000 nM	> 1000 nM	COC(=O)c1cccc(NC(=O)C2(N)CCN(c3ccncn3)CC2)c1				
945 nM	4560 nM	2060 nM	> 1000 nM	COC(=O)c1cccc(NC(=O)C2(N)CCN(c3cc(N)ncn3)CC2)c1				
> 1000 nM	> 10000 nM	416 nM	> 1000 nM	COC(=O)c1cccc(NC(=O)C2(N)CCN(c3ccnc(N)n3)CC2)c1				
239 nM	494 nM	> 1000 nM	> 1000 nM	COC(=O)c1cccc(NC(=O)C2(N)CCN(c3cc(NC(C)=O)ncn3)CC2)c1				
> 10000 nM	> 10000 nM	> 1000 nM	> 1000 nM	COC(=O)c1cccc(NC(=O)C2(N)CCN(c3ccnc(NC(C)=O)n3)CC2)c1				
25 nM	4 nM	2.5 nM	< 1 nM	COC(=O)c1cccc(NC(=O)C2(CN(C)C)CCN(c3ncnc4[nH]cc(C#N)c34)CC2)c1				
20 nM	2.8 nM	5.7 nM	< 1 nM	COC(=O)c1cccc(NC(=O)C2(CN(C)C)CCN(c3ncnc4[nH]cc(F)c34)CC2)c1				
23 nM	8 nM	652 nM	332 nM	COC(=O)c1cccc(NC(=O)C2(CN(C)C)CCN(c3ncnc4[nH]c(C)cc34)CC2)c1				
26 nM	1.6 nM	> 1000 nM	> 1000 nM	COC(=O)c1cccc(NC(=O)C2(CN(C)C)CCN(c3ncnc4[nH]c(C)c(C)c34)CC2)c1	> 1000 nM	> 10000 nM		

Compound	IC50 (LIM domain kinase 1)	IC50 (LIM domain kinase 2)	IC50 [1]	IC50 [2]	IC50 [3]	EC50 [4]	EC50 [5]	Activity (Oryctolagus cuniculus)
Cc1c[nH]c2ncnc(N3CCC(CN(C)C)(C(=O)Nc4cccc(OC(=O)N(C)C)c4)CC3)c12	19 nM	< 1 nM	40 nM	2.6 nM				
Cc1[nH]c2ncnc(N3CCC(CN(C)C)(C(=O)Nc4cccc(OC(=O)N(C)C)c4)CC3)c2c1C	22 nM	1.4 nM	> 1000 nM	> 1000 nM	> 1000 nM	> 10000 nM	9 nM	
Cc1c[nH]c2ncnc(N3CCC(CN)(C(=O)Nc4cccc(OC(=O)N(C)C)c4)CC3)c12 [LX-7101]		1.6 nM	10 nM	< 1 nM	< 1 nM	2300 nM	8.7 nM	Toxic
